System: platinum-resistant ovarian cancer (epithelial ovarian, fallopian tube or primary peritoneal cancer)
Experiment: AURELIA Phase III trial, efficacy (PFS by RECIST, ORR)
Assay type: in vivo, human
Details: for PFS Events, % / PFS Median, mo / ORR, %: by chemotherapy cohort; for ORR, %: overall response rate (RECIST and/or CA-125)
Text: The AURELIA trial evaluated the efficacy and safety of bevacizumab in combination with chemotherapy for platinum-resistant ovarian cancer. This study was designed as a prospective, open-label, randomised, two-arm Phase III evaluation of bevacizumab plus chemotherapy versus chemotherapy alone. To be eligible, patients must have ovarian cancer that progressed within 6 months of previous platinum-based therapy. Paclitaxel, topotecan or pegylated liposomal doxorubicin (PLD) was selected as chemotherapeutic combination partners since they are commonly used for treatment of platinum-resistant disease. By adding bevacizumab to chemotherapy, the AURELIA trial aimed to improve PFS for this group of patients who have limited therapeutic options and face a particularly poor prognosis. The primary objective was to compare progression-free survival (PFS) of patients randomised to selected chemotherapy only or to selected chemotherapy plus bevacizumab.
Study Design—This trial consisted of two (2) treatment arms: chemotherapy-alone (Arm 1) and chemotherapy plus bevacizumab (Arm 2). Patients were randomly assigned (1:1) to either arm, see FIG. 1.
Eligible patients received one of the following chemotherapies on a 4-week cycle at the discretion of the investigator: • a. Paclitaxel 80 mg/m^2 as a 1-hour i.v. infusion on days 1, 8, 15 and 22 q4w. • b. Topotecan 4 mg/m^2 as a 30 minute i.v. infusion on days 1, 8 and 15 q4w. Alternatively, a 1.25 mg/m^2 dose can be administered over 30 minutes on days 1-5 every three weeks. • c. Pegylated liposomal doxorubicin 40 mg/m^2 as a 1 mg/min i.v. infusion on day 1 only, q4w. After cycle 1, the drug can be delivered as a 1 h infusion.
The chemotherapy was selected from one of those described in Arm 1 at the discretion of the investigator. The chosen chemotherapy was initially combined with bevacizumab 10 mg/kg i.v. every two weeks (or 15 mg/kg every three weeks if used in combination with topotecan 1.25 mg/m^2 on days 1-5 of a every three weeks schedule). The initial bevacizumab infusion was over 90 minutes, with subsequent infusions over 60 minutes and then 30 minutes, as tolerated. Bevacizumab was administered before the chemotherapy at the first cycle and then administered prior or after the chemotherapy at subsequent cycles. In case chemotherapy was completed before diagnosis of progressive disease, patients continued to receive bevacizumab as either: (a) 10 mg/kg i.v. every two weeks; or (b) 15 mg/kg every three weeks if topotecan was selected and administered at a dose of 1.25 mg/m^2 on days 1-5 of a every three weeks schedule. After disease progression, patients received standard of care treatment.
Analyses of PFS and ORR was based on tumour assessments (based on RECIST criteria) using cross sectional imaging (preferably by CT or MRI in case of contrast allergy) of the pelvis and abdomen and (by X-ray or preferably by CT-scan) of the chest. The same assessment technique was used throughout the study to evaluate a particular lesion.
Tumour assessments were performed at baseline then every 8 weeks (every 9 weeks for patients treated with 1.25 mg/m^2 topotecan on days 1-5 of a every three weeks cycle). Responses were confirmed by a second CT scan performed not earlier than 4 weeks after the criteria for response were first met.
Progressive serial elevation of serum CA-125 were used to determine CA-125 response and biological progression-free interval (PFIbio). Overall survival was measured from the date of randomisation to the date of death from any cause.
Eligible patients had ovarian cancer (measurable by RECIST 1.0 or assessable) that had progressed ≤6 mo after ≥4 cycles of platinum-based therapy. Patients with refractory ovarian cancer, history of bowel obstruction or >2 prior anticancer regimens were ineligible. […]

Molecule	PFS Events, %	PFS Median, mo	ORR, %	overall response rate (ORR) by RECIST, CA-125 or both (FIG. 3) (bevacizumab added to chemotherapy vs chemotherapy alone)
CC(=O)O[C@H]1C(=O)[C@@]2(C)[C@H]([C@H](OC(=O)c3ccccc3)[C@]3(O)C[C@H](OC(=O)[C@H](O)[C@@H](NC(=O)c4ccccc4)c4ccccc4)C(C)=C1C3(C)C)[C@]1(OC(C)=O)CO[C@@H]1C[C@@H]2O [PAC CT, paclitaxel]	89%	3.9 mo	28.8%	–
CC[C@@]1(O)C(=O)OCc2c1cc1n(c2=O)Cc2cc3c(CN(C)C)c(O)ccc3nc2-1 [TOP CT, topotecan]	89%	2.1 mo	3.3%	–
bevacizumab (antibody, V domains shown, amino acid sequence of humanized antibody variable heavy chain; amino acid sequence of humanized antibody variable light chain, recombinant humanized anti-VEGF monoclonal antibody) VH: EVQLVESGGGLVQPGGSLRLSCAASGYTFTNYGMNWVRQAPGKGLEWVGWINTYTGEPTYAADFKRRFTFSLDTSKSTAYLQMNSLRAEDTAVYYCAKYPHYYGSSHWYFDVWGQGTLVTVSS VL: DIQMTQSPSSLSASVGDRVTITCSASQDISNYLNWYQQKPGKAPKVLIYFTSSLHSGVPSRFSGSGSGTDFTLTISSLQPEDFATYYCQQYSTVPWTFGQGTKVEIKR	–	–	–	increased the overall response rate (ORR)

From patent US11384142B2, “Combination therapy for the treatment of ovarian cancer” (Hoffmann-La Roche Inc., priority 2012, dated 2022)
